Legend:
[1] = tested on: urethane-anesthetized rats; assay: Hypoglossal nerve activity and hLTF under carbachol (cholinergic)-induced REM sleep-like state with episodic airway occlusion; format: in vivo, rat
Text: (§1) The EMGs were amplified (CyberAmp 380, Axon Instruments, Union City), integrated (time constant 0.1 s, MA821 RSP Moving Averager, CWE) and sampled at 10 KHz into a Dell PC with LabView software (National Instruments, Austin, Tex.).
A REM sleep-like state in urethane-anesthetized rats was induced by microinjection of the cholinergic agonist carbachol at unilateral dorsomedial pons^1,14 and was detected by the decrease of hypoglossal/GG EMG activity and the appearance of hippocampal theta discharge. The latter was recorded by using a parallel bipolar wire electrode inserted into the hippocampal CA1 region at the following stereotaxic coordinates: 3.7 mm caudal from Bregma, 2.2 mm lateral from midline, and depth of 2.4 mm from brain surface.
(§2) Recurrent obstructive apneas during spontaneous breathing in urethane-anesthetized rats were simulated by applying 10 or 12 episodes of airway occlusion at one episode per min.
(§3) All values are expressed as mean±SE.

[2] = clinically recommended dose range; cited from earlier work
[3] = tested on: urethane-anesthetized rats; assay: Hypoglossal amplitude and obstructive apnea-induced hLTF after yohimbine, focal at bilateral A7 and A5 regions or intravenous (no REM induction); format: in vivo, rat
Text: Recurrent obstructive apneas during spontaneous breathing in urethane-anesthetized rats were simulated by applying 10 or 12 episodes of airway occlusion at one episode per min. […] All values are expressed as mean±SE.

[4] = tested on: urethane-anesthetized rats; assay: Hypoglossal nerve activity and hLTF under spontaneous REM sleep with episodic airway occlusion; format: in vivo, rat
Protocol: as §2, §3
Experiments were performed on 5 adult male rats (body weight 270-550 g) under urethane anesthesia, pancuronium paralysis and artificial ventilation. Unlike other anesthetics, urethane anesthesia retains the sleep-like alternations in brain state and in breathing pattern and chemosensitivity similar to those seen in natural sleep^58-59 (including state-dependent modulations of GG and abdominal respiratory-related activities^40), while also circumventing the highly fragmented natural sleep pattern in rodents^40. As shown in FIGS. 12A-12B, during periods of REM-like sleep (as indicated by increased hippocampal activity) hypoglossal nerve discharge was markedly depressed (by 44.8±9.1%, P<0.01). […] In addition, episodic end-expiratory airway occlusion (lasting 15 seconds each, 1 episode per minute; FIG. 12A, arrows) caused marked time-dependent increases in the amplitude of hypoglossal nerve discharge during each airway occlusion episode.

healthy subjects = conditions: cited from earlier work
[5] = tested on: urethane-anesthetized spontaneously breathing rats
Protocol: All experimental protocols were reviewed and approved by the responsible Committee on Animal Care in accordance with published guidelines. Experiments were performed on 45 male adult Sprague-Dawley rats (300-400 g, Charles River Laboratories, Wilmington, Mass.) under urethane anesthesia (initial dose 1.5 g/kg, i.p.; supplemental dose 1/10 of initial dose, i.p. or i.v. when necessary). The femoral vein and artery were cannulated for intravenous infusion and blood pressure monitoring, respectively. Rectal temperature was maintained at 36.5-37.5° C. with a thermostatic heating pad.
After sub-laryngeal tracheal cannulation with a Y-shaped tracheal cannula, two isolated silver wires (O.D. 0.127 mm) were implanted into the genioglossus and diaphragm for EMG recording. The wire tips were exposed for 1 mm and separated by approximately 5 mm once inserted into the muscle. In some rats, the medial branch of the hypoglossal nerve (which innervates the GG and other tongue protrusion muscles) and phrenic nerve (which innervates the diaphragm) were isolated and severed. After the rat was mounted onto the stereotaxic frame, the central end of the nerve was exposed from the back of the neck (dorsal approach) and mounted onto parallel bipolar wire electrodes for recording. These rats were artificially ventilated with oxygen-enriched (40% O2) medical air and paralyzed with pancuronium bromide.
as §1, with “Tex.). The recordings were stabilized for at least 1 hour before any data collection and experimental manipulations were performed.” for “Tex.).”
For brain microinjections, an occipital craniostomy was performed to expose the brain surface. A glass micropipette (tip O.D. 10-20 μm) filled with chemical solution was inserted to the target structure according to its stereotaxic coordinates. Injections (25-50 nl per injection) were performed by applying pressure pulses to the micropipette and confirmed by the movement of the intrapipette solution meniscus. All chemicals were purchased from Sigma-Aldrich (Sigma, St. Louis, Mo.) and dissolved in ACSF at concentration of 10 mM. Stereotaxic coordinates of the A7 region: 2.3-2.6 mm from midline, 0-0.5 mm rostral from interaural level, 8.0-8.5 mm from lambda surface; A5 region: 0-0.5 mm caudal from interaural level, 2.2-2.7 mm from midline, 9.5-10 mm from lambda surface; dorsomedial pons: 1-1.5 mm from midline, 0.2-0.7 mm rostral from interaural level, 7.5-8.5 mm from lambda surface.
Recurrent obstructive apneas during spontaneous breathing in urethane-anesthetized rats were simulated by applying 10 or 12 episodes of airway occlusion at one episode per min. Each episode of airway occlusion started from the end of an expiration (in spontaneous breathing rats as described in Tadjalli et al., J Neurosci 30, 16886-16895 (2010)^5) or lung deflation (in ventilated rats) and lasted 10-12 sec. […]
The amplitudes of the integrated genioglossus EMG (or hypoglossal nerve discharge) and integrated diaphragm EMG (or phrenic nerve discharge) recordings in each respiratory cycle were measured and normalized to the control baseline values. All values are expressed as mean±SE. […]

[6] = tested on: TH-cre transgenic Sprague-Dawley rats; assay: Episodic optogenetic stimulation of A7 neurons, HM activity and hLTF; conditions: 0.5 mg/kg i.v.
[7] = intravenous 0.5 mg/kg, n=5, vs control n=12
[8] = injection at bilateral A7 region

With `C[N+](C)(C)CCOC(N)=O` [carbachol] the “respiratory-related hypoglossal activity, decrease on transition to REM-like sleep” value ([1]; focal carbachol injection at pontine dorsomedial reticular formation, vagi-intact rats) was roughly 39%.
For `COC(=O)[C@@H]1[C@H]2C[C@H]3c4[nH]c5ccccc5c4CCN3C[C@@H]2CC[C@@H]1O` [yohimbine, Yohimbine], the “baseline HM activity” value ([1]; systemic yohimbine 0.5-1.0 mg/kg i.v., cholinergic-induced REM sleep, n=7, P<0.01) is listed as “rise of baseline HM activity above the control level”, the “obstructive apnea-induced hLTF” value ([1]; systemic yohimbine 0.5-1.0 mg/kg i.v., cholinergic-induced REM sleep, up to 20 min after episodic obstructive apnea) is listed as “potently reversed the blunting of obstructive apnea-induced hLTF” and the “effect on REM sleep” value [2] is listed as “does not disrupt REM sleep”. The weight gain [2] was “does not disrupt REM sleep or cause weight gain”, the “baseline HM activity” value ([3]; focal injection at bilateral A7 and A5 regions (50 nl at 2.5 mM per site), n=5, P<0.01) was “significant increase of baseline HM activity” and the “hLTF during obstructive apnea episodes and up to 20 min afterwards” value ([3]; focal injection at bilateral A7 and A5 regions, P<0.05) was “enhancement of hLTF”. The “baseline hypoglossal amplitude before episodic airway occlusion” value [3, 7] was “augmented baseline hypoglossal amplitude”, the “hypoglossal amplitude during first and last airway occlusion episodes and 5 and 20 min after” value [3, 7] was “facilitated hypoglossal amplitude” and the “dose that effectively rescued first- and second-line motor defenses against OSA under REM sleep” value ([4]; i.v., rats, REM sleep) was greater than 0.25 mg/kg.
In the case of `CNCCCN1c2ccccc2CCc2ccccc21` [desipramine], the “tonic component of GG activity” value (healthy subjects; healthy subjects, non-REM sleep) is listed as “increased the tonic component of GG activity”, the “inspiratory-phasic component of GG activity” value (healthy subjects; healthy subjects) is listed as “failed to increase the inspiratory-phasic component of GG activity” and the “effect on REM sleep” value (healthy subjects; in vivo) is listed as “inhibit REM sleep”.
In the case of `Clc1cccc(Cl)c1N=C1NCCN1` [clonidine], the “tonic component of GG activity recruited during airway obstruction” value ([5]; application at bilateral A7 or A5 region) is reported as “strongly suppressed”, the baseline genioglossus activity ([5]; injection at bilateral A5 region, n=6) is reported as “not significantly reduced” and the “facilitation of hypoglossal activity during airway occlusion” value [5, 8] is reported as “markedly attenuated”. The hypoglossal long-term facilitation [5, 8] was “totally abolished” and the “integrated genioglossus EMG amplitude, reduction from pre-injection baseline” value ([5]; injection at bilateral A7 region (~50 nl at 5 mM per site)) was roughly 12%.
With `COc1cc2nc(N3CCN(C(=O)c4ccco4)CC3)nc(N)c2cc1OC` [prazosin] the HM activity [6] was “decreased” and the “hLTF after episodic optogenetic stimulation of A7 neurons” value [6] was “no longer resulted in hLTF”.
For `CC1c2ccccc2CN1CC1=NCCN1` (stereo not shown) [BRL44408, 2-[2H-(1-Methyl-1,3-dihydroisoindole)methyl]-4,5-dihydroimidazole], the “hypoglossal discharge (baseline) during spontaneous REM-like sleep” value ([4]; 0.2 mg/kg i.v., 5 rats) was “effectively restored the hypoglossal discharge to normal baseline level” and the “hypoglossal activity before, during or after episodic airway occlusion” value ([4]; 0.2 mg/kg i.v., throughout spontaneous REM sleep) was “at or above normal baseline level”.

From patent US20180235934A1, “NORADRENERGIC DRUG TREATMENT OF OBSTRUCTIVE SLEEP APNEA” (Massachusetts Institute of Technology, priority 2015, published 2018)
